From publication PMC10845205, “Discovery of novel antibacterial agent for the infected wound treatment: all-hydrocarbon stapling optimization of LL-37” (Theranostics, 2024)
Values after ≈ are worked out from the molar mass of the structure shown. Positions of bridges follow the written chain, without caps; N, C: chain ends. Non-standard residues stand in square brackets, D forms with d. Residues, ends and D or L forms follow the SMILES beside them. S5 = C=CCCC[C@](C)(N)C(=O)O

Experiments:
[1] = α-helicity by circular dichroism; format: physicochemical; conditions: CD, aqueous solution containing 50% trifluoroethanol, from [θ]222, 25 °C
Protocol: cm2 ∙ dmol−1) after subtracting the background using the following equation:
[θ]=(θ×1000)/( c ×l ×n ), among which, θ is the ellipticity recorded (mdeg), c is the concentration of peptide (M), l is the quartz cuvette’s optical path length (cm), and n is the amino acid number of the peptide. The helicity of peptides was calculated using the following equation: α = [θ]222/[θ]max ×100%, where [θ]222 is the mean residue ellipticity of the peptide at 222 nm; [ θ]max = (−44,000 +250T) (1−k/n), k = 4, n is the number of amino acids, T = 25 °C.
(§1) Bacterial strains and culture
(§2) Bacterial type stains ATCC 25923 S. aureus, ATCC 12228 S. epidermidis, ATCC […]
aeruginosa and ATCC 13883 K. pneumoniae were obtained from Shanghai Bioresource Collection Center. The bacterial culture medium was purchased from Oxoid and autoclaved according to the instructions from manufacturer. […]
The minimal inhibition concentration (MIC) of the linear and stapled peptides was determined using the microbroth dilution method from the Clinical and Laboratory Standards Institute (CLSI)[2, 3]. […]
(§3) 10 μL AlamarBlue cell viability reagent (ThermoFisher Scientific, UK) was added to each well, then the plate was re -incubated for a further 2 hours at 37 °C. The MIC was recorded as the minimum concentration of peptides required to completely in hibit bacteria growth. […]

[2] = Serum stability assay; format: in vitro ADME, human; conditions: human serum, 2 mg/mL peptide in pH 7.4 PBS mixed with serum 1:4, 37 °C, up to 48 h, RP-HPLC UV 220 nm, 3 independent measurements
Text: Maintaining high stability and presenting high compatibility in the complex physiological environment are important criterions for the clinical translation of AMPs. […] The derivatives were mixed with human serum in pH 7.4 PBS, simulating the degradation process of peptides by proteases in vivo. The percentages of intact derivatives were monitored and determined with time according to the PR-HPLC. […]
Serum stability of the linear and stapled peptides was examined by RP -HPLC as previously described. 2 mg/mL peptide solution was prepared in pH 7.4 PBS and incubated with human serum (Gemini, USA) to the final volume ratio of 1:4 at 37 °C.
At various time intervals, 50 μL mixture was added to 50 μL ethanol to terminate the enzymatic hydrolysis. After centrifugation at 10,000 rpm for 10 minutes under 4 °C, […]
the supernatant was collected and analyzed by RP-HPLC, with a UV detector monitored at 220 nm. Record the peak area of the intact peptide and calculate the percentage of remaining peptide based on the integrated area as, Peptide remaining (%) = peak area of remaining peptide/peak area of intact peptide×100%. […]

[3] = Hydrophobicity by RP-HPLC retention time; format: physicochemical; conditions: chromatographic, reverse-phase C18 column, CH3CN/H2O containing 0.1%TFA from 10% to 90% over 20 min, UV 220 nm
Text: To uncover the structure-activity relationship of KR-12 and its stapled derivatives, their physicochemical properties in terms of hydrophobicity, net charge and α-helicity were investigated (Table 2).

[4] = test system: NIH-3T3 cell; conditions: CCK-8, 24 h incubation, nonlinear regression, 3 independent measurements
Protocol: For development of the stapled KR-12 derivatives to treat bacterial infections in vivo, their cytotoxicity was examined via the CCK-8 assay, which could provide a quantitative assessment of cell viability based on the dehydrogenase activity. The mouse embryonic fibroblast NIH-3T3 cell was selected and incubated with various concentrations of KR-12 and its stapled derivatives.
Mouse embryonic fibroblast cells NIH-3T3 and mouse monocyte macrophage leukemia cells RAW264.7 were obtained from Shanghai Institute of Biochemistry and Cell Biology, Chinese Academy of Sciences. These two cells were maintained in DMEM and RPMI-1640, respectively. Both media were supplemented with 10% FBS and 1% 100 U/mL penicillin-streptomycin solution. Cells were maintained at 37 °C in a 5% CO2 and humidified incubator. Replace the culture medium every day until the cell grows to confluence. Cells were then treated with 0.25% trypsin–EDTA and split using fresh medium for either passage or analysis.
CCK-8 cell counting kit was utilized to examine the cytotoxicity of the linear and stapled peptides. NIH-3T3 cell was planked at a density of 1.5×10^4 cell/well in a 96 - well plate and incubated it for 24 hours at 37 °C. Cells were then treated with different concentrations of peptides in fresh DMEM and incubated for 24 hours before the addition of 10 μL CCK -8 and incubation for a further 1 hour. Measure the absorbance at 450nm using a microplate reader (BioTek, USA) and calculate the percentage of cell viability as: cell viability (%) = (Abspeptide-Absblank)/(Abscontrol-Absblank)×100%, where Abscontrol is the absorbance of cells treated with PBS and Abs blank is the absorbance of the cell-free medium. The data was fitted using the nonlinear regression within

[5] = test system: E. coli; conditions: CLSI broth microdilution, MH-II broth, 24 h 37 °C, AlamarBlue; ATCC 25922; 3 independent measurements
Protocol: (§4) According to the protocol of Clinical & Laboratory Standards Institute, the minimum inhibitory concentration (MIC) of the linear and stapled peptides against a panel of gram-positive and gram-negative bacteria was determined by the broth microdilution method. […]
as §1, §2
(§5) aeruginosa and ATCC 13883 K. pneumoniae were obtained from Shanghai Bioresource Collection Center. The bacterial culture medium was purchased from Oxoid and autoclaved according to the instructions from manufacturer. The isolated strains were cultured in Mueller Hinton II broth and continuously shaken at 140 rpm for 18 hours to the middle of the exponential growth phase at 37 °C with an OD value of 0.4-0.5.
(§6) Bacterial suspensions with an OD value of 0.1, approximately […], were then diluted for further assays.
(§7) The minimal inhibition concentration (MIC) of the linear and stapled peptides was determined using the microbroth dilution method from the Clinical and Laboratory Standards Institute (CLSI)[2, 3]. Bacterial suspensions of 10 6 CFU/mL were prepared in MH-II broth and peptide solutions at varying concentrations were prepared in phosphate buffer saline (PBS). Then 50 μL peptide solution and 50 μL bacterial suspension were mixed in a 96 -well plate. Plates were incubated for 24 hours at 37 °C.
as §3, with “growth. For serum stability assessment, the peptide solutions were pre - incubated with 50% human serum for 4 h before the MIC determination. Experiments were performed in 3 independent measurements.” for “growth.”

[6] = test system: E. faecalis; conditions: CLSI broth microdilution, MH-II broth, 24 h 37 °C, AlamarBlue; ATCC 29212; 3 independent measurements
Protocol: as §4, §1, §2, §5, §6, §7
as §3, with “growth. For serum stability assessment, the peptide solutions were pre - incubated with 50% human serum for 4 h before the MIC determination. Experiments were performed in 3 independent measurements.” for “growth.”

[7] = test system: A. baumannii; conditions: CLSI broth microdilution, MH-II broth, 24 h 37 °C, AlamarBlue; ATCC 19606; 3 independent measurements
Protocol: as §4, §1, §2, §5, §6, §7
as §3, with “growth. For serum stability assessment, the peptide solutions were pre - incubated with 50% human serum for 4 h before the MIC determination. Experiments were performed in 3 independent measurements.” for “growth.”

## CC[C@H](C)[C@H](NC(=O)[C@H](CCCNC(=N)N)NC(=O)[C@H](CCCCN)NC(C)=O)C(=O)N[C@H](C(=O)N[C@@H](CCC(N)=O)C(=O)N[C@@H](CCCNC(=N)N)C(=O)N[C@H](C(=O)N[C@@]1(C)CCCC=CCCC[C@@](C)(C(N)=O)NC(=O)[C@H](CC(C)C)NC(=O)[C@H](Cc2ccccc2)NC(=O)[C@H](CC(=O)O)NC1=O)[C@@H](C)CC)C(C)C [KR-12 (K8, R12)] (Ac-KRIVQRI[S5]DFL[S5]-NH2; staple 8-12)
[1]
  α-helicity: 50.0 ± 0.6%
[2]
  TD50 (time at which 50% of the peptide is degraded in the presence of serum): 18.28 h
[3]
  TR (retention time, measure of hydrophobicity): 18.2 min
[4]
  IC50 against NIH-3T3 cell: 52.8 µg/mL (≈ 33.4 µM)
[5]
  MIC E. coli: 64 µg/mL (≈ 40.5 µM)
[6]
  MIC E. faecalis: 16 µg/mL (≈ 10.1 µM)
[7]
  MIC A. baumannii: 16 µg/mL (≈ 10.1 µM)
